Experimental findings from patent US8415309B2, “Bicyclic nucleosides and nucleotides as therapeutic agents” (priority 2009, dated 2013) are described below.

pEC50: −log10 of the molar value. Where two headings read alike, the source gives them in different places.

A short description of data set [1]: Pharmacokinetics in monkeys. Type of data set: in vivo, cynomolgus monkeys. Here is the method:
(§1) The pharmacokinetic properties of Compound 9 were determined in male Sprague-Dawley rats, beagle dogs and cynomolgus monkeys (n=3 in each species) with an oral dose of 5 mg/kg and iv dose of 2 mg/kg. PK parameters were analyzed using the WinNonlin noncompartmental model.

Data set [2] relates to HCV RNA replication (HCV subgenomic replicon in MP-1 cells). The data set is described as follows: Cell-Based HCV RNA Replication Luciferase Reporter Assay. To be noted: Hepatitis C virus; for inhibition at 50 µM: read-out: Inhibition at 50 μM (%); for pEC50: 72 h. (Reporter assays use an easily measured gene product as a stand-in for the process of interest.)
A further data set is described as follows: Pharmacokinetics in dogs. The format is in vivo, beagle dogs. To be noted: Dog. As to the method:
as §1

Another data set is described as follows: Pharmacokinetics in rats. The format is in vivo, male Sprague-Dawley rats. To be noted: Rat. Here is the method: as §1
The next data set can be described thus: Cross-species PK summary. The format is in vivo, rats, monkeys and dogs. To be noted: Sprague-Dawley (rat), beagle (dog), cynomolgus (monkey), plasma. Here is the method:
as §1

Data set [3] can be described thus: Cytotoxicity (CellTiter-Blue / MTT) run with the replicon assay. Type of data set: cell-based. Particulars: human, MP-1 cells. Here is the method: The assay outline includes the following steps on Day 1: (1) Plate cells at a density of 10,000 cells/well of a 96 well plate and incubate 37° C.; (2) Make compound dilutions; (3) Add compound dilutions to cells; (4) Incubate for 72 h. The assay includes the following steps on Day 4: (1) Perform Cell titer blue assay for cytotoxicity (the assay is based on the reduction of resazurin (cell titer blue) into a fluorescent product, resorufin, in metabolically active cells, and the assay can be duplexed with the assay used for HCV replicon luciferase reporter assay); (2) Perform luciferase assay with the Bright-Glo luciferase substrate (Promega) and read luminescence; (3) Process results.
Under the Alamar blue assay protocol, the assay plates are removed from a 37° C. incubator, and 20 μl of CellTiter-Blue™ Reagent is added. The cells are incubated in the 37° C. incubator for 3 h. The assay plates are shaken for 10 sec and fluorescence at 560Ex/590Em nm is recorded. The results are expressed relative to the 100% untreated control using the following equation: […]=100−[(RFUcompound−RFUblank/RFUuntreated−RFUblank)×100]. Alternatively, under the MTT protocol the extent of cytotoxicity is determined via metabolism of the vital dye 3-(4,5-dimethylthiaxol-2-yl)-2,5-diphenyltetrazolium bromide (MTT). MTT (1 mg/ml) was added to each well and plates incubated for 3 hours incubation at 37° C. Wells were aspirated, iso-propanol […] was added and absorbance values read at 540/690 nm. Compound concentrations that developed 50% cytotoxicity (CC50) were calculated using non-linear regression analysis.
(In general: Resazurin is reduced to fluorescent resorufin, in cell work by metabolically active cells.)

Where [4] appears, read: MP-1 cells, luciferase readout, read-out: EC50.
[5] abbreviates: oral 5 mg/kgBW, read-out: Cmax (maximum concentration observed following the oral dose).

Consider `C[C@@]1(O)[C@H](O)[C@@H](CO)O[C@H]1c1ccc2c(N)ncnn12` [Compound 9, 4-amino-7-(2-C-methyl-β-D-ribofuranosyl)-pyrrolo[2,1-f][1,2,4]triazine], for which the “CL (total clearance)” value in data set [1] (Monkey, single iv 2 mg/kgBW) is given as 20.5 mL/min/kgBW; in “Pharmacokinetics in dogs” (single iv 2 mg/kgBW), 11.4 mL/min/kgBW; in “Pharmacokinetics in rats” (single iv 2 mg/kgBW) it was 18.8 mL/min/kgBW. Moreover, the “Vss (steady state volume distribution)” value in data set [1] (Monkey, single iv 2 mg/kgBW) turned out to be 2.43 L/kgBW; in “Pharmacokinetics in dogs” (single iv 2 mg/kgBW) it was 5.22 L/kgBW; in “Pharmacokinetics in rats” (single iv 2 mg/kgBW) it was 4.19 L/kgBW. The bioavailability – broadly, the share of a dose that reaches the circulation, judged against a reference dose that is usually intravenous – was 33% in data set [1] (cynomolgus monkey, plasma, 5 mg/kg, oral 5 mg/kgBW vs iv 2 mg/kgBW, read-out: F % (oral bioavailability)); 96% in “Pharmacokinetics in dogs” (beagle, plasma, 5 mg/kg, oral 5 mg/kgBW vs iv 2 mg/kgBW, read-out: F % (oral bioavailability)); 83% in “Pharmacokinetics in rats” (male, Sprague-Dawley, plasma, 5 mg/kg, oral 5 mg/kgBW vs iv 2 mg/kgBW, read-out: F % (oral bioavailability)); 33 to 96% in “Cross-species PK summary” (po, 5 mg/kg, range over rat, monkey, dog, read-out: oral bioavailability across species). For the same compound, the Cmax in data set [1] (cynomolgus monkey, plasma, 5 mg/kg, oral 5 mg/kgBW, read-out: Cmax (maximum concentration observed following the oral dose)) is 820 nM; in the data set “Pharmacokinetics in dogs” (setting [5]), 8360 nM; in “Pharmacokinetics in rats” (setting [5]), 2380 nM. In addition, the area under the curve (AUC) (usually the area under the concentration-time curve, a measure of exposure) in data set [1] (cynomolgus monkey, plasma, 5 mg/kg, single iv (2 mg/kgBW) or oral dose (5 mg/kgBW), read-out: AUC (area under the curve of plasma exposure)) was 5 µM·h; in the data set “Pharmacokinetics in dogs” (beagle, plasma, 5 mg/kg, single iv (2 mg/kgBW) or oral dose (5 mg/kgBW), read-out: AUC (area under the curve of plasma exposure)), 24.9 µM·h; in “Pharmacokinetics in rats” (male, Sprague-Dawley, plasma, 5 mg/kg, single iv (2 mg/kgBW) or oral dose (5 mg/kgBW), read-out: AUC (area under the curve of plasma exposure)), 13 µM·h. The half-life in data set [1] (cynomolgus monkey, plasma, single iv (2 mg/kgBW) or oral dose (5 mg/kgBW), read-out: t1/2 (terminal elimination half-life) (converted)) was 4.3 h; in “Pharmacokinetics in dogs” (beagle, plasma, single iv (2 mg/kgBW) or oral dose (5 mg/kgBW), read-out: t1/2 (terminal elimination half-life) (converted)) it was 7.6 h; in “Pharmacokinetics in rats” (male, Sprague-Dawley, plasma, single iv (2 mg/kgBW) or oral dose (5 mg/kgBW), read-out: t1/2 (terminal elimination half-life) (converted)), 4 h; in “Cross-species PK summary” (range over preclinical animal species (rat, monkey, dog), read-out: plasma / elimination half-life across species), 4 to 7.6 h. For the same compound, in data set [2] (50 μM compound), the inhibition (commonly the change of the read-out against control, counted positive when it falls) at 50 µM was 99%. For the same compound, the pEC50 (as a rule, the EC50 on a negative log10 scale, so that one unit is a factor of ten) in data set [2] (setting [4]) was 5.89. Also, in data set [3], the midpoint of cytotoxicity, the CC50 at 72 h, lay at 365 µM.

On to `C[C@@]1(O)[C@H](O)[C@@H](CO)O[C@H]1c1cc(F)c2c(N)ncnn12` [Compound 11, 4-amino-5-fluoro-7-(2-C-methyl-β-D-ribofuranosyl)-pyrrolo[2,1-f][1,2,4]triazine], for which the inhibition at 50 µM in data set [2] (50 μM compound) came out at 97%. The pEC50 in data set [2] (setting [4]) is 5.51. Further, in data set [3], the CC50 (usually the concentration at which the toxic effect on the cells reaches its halfway point) at 72 h was above 100 µM.

Consider `C[C@@]1(O)[C@H](O)[C@@H](CO)O[C@H]1c1cc(Cl)c2c(N)ncnn12` [Compound 12, 4-amino-5-chloro-7-(2-C-methyl-β-D-ribofuranosyl)-pyrrolo[2,1-f][1,2,4]triazine], for which the inhibition at 50 µM in data set [2] (50 μM compound) was found to be 99%. In addition, the pEC50 in data set [2] (setting [4]) is 6.66. In data set [3], the CC50 at 72 h worked out at 6.5 µM.

On to `C[C@@]1(O)[C@H](O)[C@@H](CO)O[C@H]1c1cc(I)c2c(N)ncnn12` [Compound 13, 4-amino-5-iodo-(2-C-methyl-β-D-ribofuranosyl)-pyrrolo[2,1-f][1,2,4]triazine], for which the inhibition at 50 µM in data set [2] (50 μM compound) was 97%.

`C[C@@]1(O)[C@H](O)[C@@H](CO)O[C@H]1c1cc(C#N)c2c(N)ncnn12` [Compound 14, 4-amino-7-(2-C-methyl-β-D-ribofuranosyl)-pyrrolo[2,1-f][1,2,4]triazine-5-carbonitrile]: in data set [2] (50 μM compound), the inhibition at 50 µM came to 100%. Moreover, the pEC50 in data set [2] (setting [4]) was 5.85. In data set [3], it took 18.8 µM to reach half-maximal cytotoxicity (CC50 at 72 h).

With `C[C@@]1(O)[C@H](O)[C@@H](CO)O[C@H]1c1cc(C(N)=O)c2c(N)ncnn12` [Compound 15, 4-amino-7-(2-C-methyl-β-D-ribofuranosyl)-pyrrolo[2,1-f][1,2,4]triazine-5-carboxylic acid amide], the inhibition at 50 µM in data set [2] (50 μM compound) stood at 100%. Also, the pEC50 in data set [2] (setting [4]) was 8.21. The midpoint of cytotoxicity in data set [3], the CC50 at 72 h, lay at 0.37 µM.

On to `C[C@@]1(O)[C@H](O)[C@@H](CO)O[C@H]1c1cc(C#C[Si](C)(C)C)c2c(N)ncnn12` [Compound 16, 4-amino-5-trimethylsilanylethynyl-7-(2-C-methyl-β-D-ribofuranosyl)-pyrrolo[2,1-f][1,2,4]triazine], for which the inhibition at 50 µM in data set [2] (50 μM compound) was 99%.

With `C#Cc1cc([C@@H]2O[C@H](CO)[C@@H](O)[C@@]2(C)O)n2ncnc(N)c12` [Compound 17, 4-Amino-5-ethynyl-7-(2-C-methyl-β-D-ribofuranosyl)-pyrrolo[2,1-f][1,2,4]triazine], in data set [2] (50 μM compound), the inhibition at 50 µM is 98%.

On to `C[C@@]1(O)[C@H](O)[C@@H](CO)O[C@H]1c1ccc2c(N)nc(N)nn12` [Compound 20, 2,4-diamino-7-(2-C-methyl-β-D-ribofuranosyl)-pyrrolo[2,1-f][1,2,4]triazine], for which the inhibition at 50 µM in data set [2] (50 μM compound) stood at 19%.

For `C[C@@]1(O)[C@H](O)[C@@H](CO)O[C@H]1c1cc(-c2ncco2)c2c(N)ncnn12` [Compound 22, 4-amino-5-oxazol-2-yl-7-(2-C-methyl-β-D-ribofuranosyl)-pyrrolo[2,1-f][1,2,4]triazine], in data set [2] (50 μM compound), the inhibition at 50 µM amounted to 95%.

Turning to `C[C@@]1(O)[C@H](O)[C@@H](CO)O[C@H]1c1c(F)cc2c(N)ncnn12` [Compound 32, 4-Amino-6-fluoro-7-(2-C-methyl-β-D-ribofuranosyl)-pyrrolo[2,1-f][1,2,4]triazin-7-yl], in data set [2] (50 μM compound), the inhibition at 50 µM came to 23%.

As to `CC(C)(C)C(=O)OCOP(=O)(OCOC(=O)C(C)(C)C)OC[C@H]1O[C@@H](c2ccc3c(N)ncnn23)[C@](C)(O)[C@@H]1O` [Compound 34, Bis-POM (pivaloyloxymethyl) prodrug of 4-amino-7-(2-C-methyl-β-D-ribofuranosyl)-pyrrolo[2,1-f][1,2,4]triazine], in data set [2], the negative logarithm of the EC50 (pEC50) was 5.42 and the inhibition at 50 µM is 100%. In data set [3], the CC50 at 72 h worked out at 45 µM.

Regarding `C[C@@]1(O)[C@H](O)[C@@H](CO)O[C@H]1c1cc(C2=NCCN2)c2c(N)ncnn12` [Compound 35, 4-amino-5-imidazoline-7-(2-C-methyl-β-D-ribofuranosyl)-pyrrolo[2,1-f][1,2,4]triazine], the inhibition at 50 µM in data set [2] (50 μM compound) worked out at 99%.

Take `C[C@@]1(O)[C@H](O)[C@@H](CO)O[C@H]1c1cc(-c2ncc[nH]2)c2c(N)ncnn12` [Compound 38, 4-amino-5-imidazole-7-(2-C-methyl-β-D-ribofuranosyl)-pyrrolo[2,1-f][1,2,4]triazine]: the inhibition at 50 µM in data set [2] (50 μM compound) amounted to 99%.
